# Assay results taken from patent US10150743B2, “Carboxylic acid compounds” (priority 2012, dated 2018).
# pIC50: −log10 of the molar value.
# Assays:
# CT26 mouse tumour cells = experiment: Survival studies in CT26, a murine syngeneic colon carcinoma tumour model; format: in vivo; conditions: Balb/C mice; RT 2Gy x5 plus 5 mg/kg once a week i.v.; vs control or RT; FIG. 13
# Procedure: Experiments were conducted on female mice (Balb/C genotype, at least 5 weeks old). CT26 mouse tumour cells (CRL-2638) were purchased from ATCC. CT26 mouse tumour cells (1×10^6) were implanted subcutaneously in the flank of mice on day 0. Mice in radiotherapy alone (RT) group and combination group were anesthetized and received radiation therapy (2Gy) at days 7, 8, 9, 10, and 11. Mice in combination group were also treated with a compound of Example 3 (30 mg/kg once a week) administered orally (p.o.) or Example 4 (5 mg/kg once a week) administered intravenously (i. v.) on days 7, 14, 22, and 27. Tumour volumes were assessed at least twice weekly by bilateral vernier caliper measurements. Survival period was determined by the time taken for tumours to reach 4 times the volume at the time of treatment.
# human TLR8 = human TLR8 (Homo sapiens (Human), UniProt Q9NR97); experiment: Human TLR8 assay (TLR8/NF-kB/SEAPorter HEK 293 Cell Line); format: cell-based; conditions: SEAP induction, overnight incubation at 37° C., 0.1% DMSO; read-out: TLR8 pEC50 (converted)
# Chain of human TLR8 (Q9NR97 27-1041): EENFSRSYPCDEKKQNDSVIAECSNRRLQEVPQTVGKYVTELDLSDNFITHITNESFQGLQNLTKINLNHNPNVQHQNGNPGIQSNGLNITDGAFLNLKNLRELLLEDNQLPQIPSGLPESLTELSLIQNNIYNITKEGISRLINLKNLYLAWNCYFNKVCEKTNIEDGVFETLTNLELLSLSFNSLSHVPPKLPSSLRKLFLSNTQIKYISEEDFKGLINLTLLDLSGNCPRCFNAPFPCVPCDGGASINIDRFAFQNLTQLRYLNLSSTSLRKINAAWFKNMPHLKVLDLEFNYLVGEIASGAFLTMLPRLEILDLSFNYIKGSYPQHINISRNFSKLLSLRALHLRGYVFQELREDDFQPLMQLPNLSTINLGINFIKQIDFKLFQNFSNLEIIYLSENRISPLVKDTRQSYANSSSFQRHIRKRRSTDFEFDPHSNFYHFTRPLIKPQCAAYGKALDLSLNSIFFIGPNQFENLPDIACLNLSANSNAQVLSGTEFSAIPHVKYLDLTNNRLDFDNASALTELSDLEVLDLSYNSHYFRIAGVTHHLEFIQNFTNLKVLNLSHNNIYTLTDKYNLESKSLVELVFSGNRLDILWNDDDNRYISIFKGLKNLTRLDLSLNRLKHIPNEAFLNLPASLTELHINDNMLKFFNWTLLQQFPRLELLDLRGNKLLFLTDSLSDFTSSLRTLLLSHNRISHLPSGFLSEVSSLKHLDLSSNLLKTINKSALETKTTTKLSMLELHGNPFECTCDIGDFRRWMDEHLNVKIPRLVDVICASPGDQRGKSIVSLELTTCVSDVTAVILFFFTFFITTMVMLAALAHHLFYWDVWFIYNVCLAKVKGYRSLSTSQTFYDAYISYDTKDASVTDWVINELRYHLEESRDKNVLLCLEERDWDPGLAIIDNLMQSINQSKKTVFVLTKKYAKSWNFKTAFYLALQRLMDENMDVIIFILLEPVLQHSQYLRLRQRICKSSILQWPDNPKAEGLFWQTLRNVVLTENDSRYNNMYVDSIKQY
# Text: TLR8/NF-kB/SEAPorter™ HEK 293 Cell Line (Imgenex Corporation) is a stably co-transfected cell line which expresses full-length human TLR8 and the secreted alkaline phosphatase (SEAP) reporter gene under the transcriptional control of an NF-κB response element. TLR8 expression in this cell line has been tested by flow cytometry. Transfectants with stable expression were selected using the antibiotic blasticidin and geneticin. TLR signaling leads to the translocation of NF-κB and activation of the promoter results in expression of the SEAP gene. TLR8-specific activation was assessed by determining the level of SEAP produced following overnight incubation of the cells at 37° C. with the standard compound in the presence of 0.1% (v/v) dimethylsulfoxide (DMSO). Concentration dependent induction of SEAP production by compounds was expressed as the concentration of compound which produced half of the maximal level of SEAP induction for that compound (EC50).
# Renca mouse tumour cells = experiment: Tumour growth studies in Renca, a murine syngeneic renal carcinoma tumour model; format: in vivo; conditions: Balb/C mice, 3 mg/kg once a week p.o. on days 1, 8, 15; vs 0.5% methylcellulose; FIG. 10
# Procedure: Experiments were conducted on female mice (Balb/C genotype, at least 5 weeks old). Renca mouse tumour cells (Cancer Chemother Pharmacol. 1995; 36 (1): 7-12) were kindly provided by Dr. T. Fujioka at Department of Urology, Iwate Medical University School of Medicine. Renca mouse tumour cells (5×10^4) were implanted subcutaneously in the flank of mice on day 0. Mice were treated with either drug vehicle (0.5% methylcellulose), the compound of Example 3 (0.3 mg/kg once a week) or the compound of Example 4 (3 mg/kg once a week) administered orally (p. o.) on days 1, 8, and 15. Tumour volumes were assessed at least twice weekly by bilateral vernier caliper measurements.
# Tumour growth inhibition from the start of treatment was assessed by comparison of the differences in tumour growth rate between control and the compound of Example 3 treated groups, as shown in FIG. 9.
# Tumour growth inhibition from the start of treatment was assessed by comparison of the differences in tumour growth rate between control and the compound of the Example 4 treated groups, as shown in FIG. 10.
# human TLR7 = human TLR7 (Homo sapiens (Human), UniProt Q9NYK1); experiment: Human TLR7 assay (SEAP reporter in HEK293); format: cell-based; conditions: SEAP induction, overnight incubation at 37° C., 0.1% DMSO; read-out: TLR7 (pEC50) (converted)
# Chain of human TLR7 (Q9NYK1 27-1049): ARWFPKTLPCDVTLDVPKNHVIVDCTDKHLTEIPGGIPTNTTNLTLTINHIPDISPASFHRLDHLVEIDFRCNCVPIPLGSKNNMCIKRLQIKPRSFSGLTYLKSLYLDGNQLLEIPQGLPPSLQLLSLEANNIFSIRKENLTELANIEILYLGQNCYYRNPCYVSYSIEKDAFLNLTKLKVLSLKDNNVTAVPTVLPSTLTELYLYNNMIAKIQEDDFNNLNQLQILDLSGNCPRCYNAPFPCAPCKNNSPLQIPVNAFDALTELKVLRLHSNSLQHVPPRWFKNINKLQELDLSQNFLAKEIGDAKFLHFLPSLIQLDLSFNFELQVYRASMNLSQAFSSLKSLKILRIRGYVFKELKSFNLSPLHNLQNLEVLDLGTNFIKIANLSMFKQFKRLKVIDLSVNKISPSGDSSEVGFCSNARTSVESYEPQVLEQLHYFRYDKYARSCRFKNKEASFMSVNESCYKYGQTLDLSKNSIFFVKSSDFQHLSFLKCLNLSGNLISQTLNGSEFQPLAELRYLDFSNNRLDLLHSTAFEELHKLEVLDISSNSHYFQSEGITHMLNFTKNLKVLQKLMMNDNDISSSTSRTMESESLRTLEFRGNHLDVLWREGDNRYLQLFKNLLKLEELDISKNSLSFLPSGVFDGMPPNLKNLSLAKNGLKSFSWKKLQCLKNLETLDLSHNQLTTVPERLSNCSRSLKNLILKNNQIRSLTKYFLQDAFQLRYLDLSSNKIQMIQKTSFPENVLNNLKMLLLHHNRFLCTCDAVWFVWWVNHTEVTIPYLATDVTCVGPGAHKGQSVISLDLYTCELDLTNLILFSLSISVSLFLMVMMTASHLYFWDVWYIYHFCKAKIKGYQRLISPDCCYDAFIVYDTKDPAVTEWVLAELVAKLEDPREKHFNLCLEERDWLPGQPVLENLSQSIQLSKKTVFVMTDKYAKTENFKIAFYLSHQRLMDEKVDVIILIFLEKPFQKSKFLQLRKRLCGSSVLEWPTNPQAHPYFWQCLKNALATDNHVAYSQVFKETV
# Text: Recombinant human TLR7 was stably expressed in a HEK293 cell line already stably expressing the pNiFty2-SEAP reporter plasmid; integration of the reporter gene was maintained by selection with the antibiotic zeocin. The most common variant sequence of human TLR7 (represented by the EMBL sequence AF240467) was cloned into the mammalian cell expression vector pUNO and transfected into this reporter cell-line. Transfectants with stable expression were selected using the antibiotic blasticidin. In this reporter cell-line, expression of secreted alkaline phosphatase (SEAP) is controlled by an NFkB/ELAM-1 composite promoter comprising five NFkB sites combined with the proximal ELAM-1 promoter. TLR signaling leads to the translocation of NFkB and activation of the promoter results in expression of the SEAP gene. TLR7-specific activation was assessed by determining the level of SEAP produced following overnight incubation of the cells at 37° C. with the standard compound in the presence of 0.1% (v/v) dimethylsulfoxide (DMSO). Concentration dependent induction of SEAP production by compounds was expressed as the concentration of compound which produced half of the maximal level of SEAP induction for that compound (EC50).
# hERG potassium channel = hERG potassium channel (Homo sapiens (Human), UniProt Q12809); experiment: hERG Analysis - Method 2 (QPATCH HT, CHO-hERG cells); format: cell-based; conditions: half-maximal inhibition concentration, 22±2° C.
# Chain of hERG potassium channel (Q12809 whole entry): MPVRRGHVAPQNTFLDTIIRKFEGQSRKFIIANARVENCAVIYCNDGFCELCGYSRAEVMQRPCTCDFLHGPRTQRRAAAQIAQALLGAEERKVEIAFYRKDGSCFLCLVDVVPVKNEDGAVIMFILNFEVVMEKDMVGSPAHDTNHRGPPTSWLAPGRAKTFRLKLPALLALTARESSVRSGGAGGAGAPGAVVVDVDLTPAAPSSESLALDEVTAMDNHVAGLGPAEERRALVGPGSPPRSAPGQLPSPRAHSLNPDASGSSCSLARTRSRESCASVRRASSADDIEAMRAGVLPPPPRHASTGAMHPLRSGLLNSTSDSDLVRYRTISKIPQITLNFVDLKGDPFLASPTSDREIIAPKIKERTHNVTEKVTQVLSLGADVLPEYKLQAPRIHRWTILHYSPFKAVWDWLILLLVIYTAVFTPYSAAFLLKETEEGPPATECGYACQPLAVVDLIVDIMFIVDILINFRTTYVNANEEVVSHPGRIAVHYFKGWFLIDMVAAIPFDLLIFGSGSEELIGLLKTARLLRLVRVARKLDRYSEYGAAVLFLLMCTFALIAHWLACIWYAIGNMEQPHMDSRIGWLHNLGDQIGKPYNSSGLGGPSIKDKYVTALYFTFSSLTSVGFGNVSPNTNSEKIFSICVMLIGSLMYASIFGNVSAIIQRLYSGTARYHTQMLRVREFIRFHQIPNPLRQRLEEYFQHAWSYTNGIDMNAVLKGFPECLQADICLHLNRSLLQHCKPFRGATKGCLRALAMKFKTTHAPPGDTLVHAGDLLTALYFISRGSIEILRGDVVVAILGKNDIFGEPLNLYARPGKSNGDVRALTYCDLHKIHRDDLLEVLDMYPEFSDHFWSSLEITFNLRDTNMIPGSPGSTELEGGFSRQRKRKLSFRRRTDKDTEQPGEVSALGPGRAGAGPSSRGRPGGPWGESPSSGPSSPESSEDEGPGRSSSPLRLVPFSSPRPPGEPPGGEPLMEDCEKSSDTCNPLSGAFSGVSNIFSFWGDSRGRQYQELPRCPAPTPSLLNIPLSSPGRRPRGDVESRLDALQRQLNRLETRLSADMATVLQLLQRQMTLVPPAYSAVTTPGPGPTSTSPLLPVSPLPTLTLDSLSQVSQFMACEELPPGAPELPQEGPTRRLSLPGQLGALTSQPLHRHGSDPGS
# Procedure: The hERG potassium current was measured in a hERG-stably-expressing Chinese hamster ovary K1 (CHO) cells. The experiments were performed using an automated planar patch-clamp system QPATCH HT (Sophion Bioscience A/S). The application of pressure for forming gigaseals and whole-cell patch clamp configuration were established using the QPATCH assay software. Patch-clamp experiments were performed in voltage-clamp mode and whole-cell currents were recorded from individual cells. The following stimulation protocol was applied to investigate the effects of compounds on hERG potassium channel: The membrane potential was held at −80 mV and repetitively (every 15 s) depolarized to +20 mV for 5 s after the pulse to −50 mV for 20 ms served to define the baseline, followed by repolarizing step to −50 mV for 5 s to evaluate of the tail current amplitude. Experiments were conducted at room temperature (22±2° C.).
# Effects of compounds were determined from cumulative applications of increasing 4 concentrations and calculated as percent of blocked current. The data points were fitted with Hill equation to calculate half-maximal inhibition concentrations. The test solution includes: Extracellular solution (mM): 2 mM of CaCl2, 1 mM of MgCl2, 10 mM of HEPES, 4 mM of KCl, 145 mM of NaCl, and 10 mM of Glucose; and Intracellular solution (mM): 5.4 mM of CaCl2, 1.8 mM of MgCl2, 10 mM of HEPES, 31 mM of KOH, 10 mM of EGTA, 120 mM of KCl, and 4 mM of ATP.
structure (smiles),measurement,setting,value
"CCC[C@@H](CCO)Nc1nc(N)nc(C)c1Cc1ccc(CN(CC(=O)O)CC(F)(F)F)cc1OC [Example 4, (S)-2-((4-((2-amino-4-(1-hydroxyhexan-3-ylamino)-6-methylpyrimidin-5-yl)methyl)-3-methoxybenzyl)(2,2,2-trifluoroethyl)amino)acetic acid]",Survival period (time for tumours to reach 4 times the volume at treatment),CT26 mouse tumour cells,survived significantly longer
same,EC50,human TLR8,> 10 µM
same,Tumour growth inhibition,Renca mouse tumour cells,inhibited tumour growth
same,EC50,human TLR7,0.1 µM
same,pIC50,hERG potassium channel,< 5.00
